Data published in patent publication EP0500802B1, “LIPOSOMAL COMPOSITIONS” (priority 1989, dated 1991).

Experiment: Ocular biodistribution of 14C-labelled cromolyn free drug after topical ocular instillation (liquid scintillation counting of tissues)
Assay type: in vivo, New Zealand white rabbits
Conditions: for TISSUE CONCENTRATION WEIGHTED MEAN: Examples 1-3
Experimental: A. Preparation of test article. The sodium cromoglycate free drug test article used in the ocular biodistribution studies (Examples 1, 2 and 3) was prepared according to the following formula: […]
B. The [propane-2-¹⁴C]cromolyn sodium used in the biodistribution studies was prepared as follows: 1,3-dichloro[2-¹⁴C]propan-2-ol was reacted with 2,6-dihydroxyacetophenone to give 1,3-bis (2-acetyl-3-hydroxy phenoxy)-2-hydroxy[2-¹⁴C]propane. This was treated with base and diethyl oxalate followed by acid catalysed cyclisation to give diethyl [propane-2-¹⁴C]cromolyn. Hydrolysis with sodium hydroxide gave the final product which was purified by crystallisation from water acetone. C. Specification and Handling of Experimental Animals and Tissues. • 1. Description of Experimental Animals: Female, New Zealand white rabbits (Hare Marland) weighing 2-3 kg were used in these studies. Upon receipt each animal was assigned an identification number and examined for gross signs of general health. The animals were individually housed in standard rabbit cages and given access to food and water ad libitum. Animals were received approximately one week before initiation of the study. Prior to the study the animals were randomly assigned to treatment groups using either a random number table or generator. Immediately before treatment the ocular tissues were examined for signs of irritation. If irritation was observed, either another animal was substituted or the condition noted. Food was removed at the time of treatment Water was available ad libitum throughout. • 2. Topical Ocular Instillation of Test Article: Animals were treated unilaterally by topical ocular instillation using a positive displacement pipet. The eyelids were gently retracted and the dose applied onto the cornea taking care to avoid touching the tissue with the pipet tip. The animal was positioned such that the dose flowed into the lower cul-de-sac. After treatment the animals were returned to their cages. • 3. Collection of Plasma Sample: Immediately prior to euthanasia, animals were placed in a standard rabbit restrainer. A small amount of xylene was applied to an eartip to enhance blood flow. The lateral ear vein was lanced and approximately 500 ul of blood collected in a Microtainer Brand Tube with EDTA (Becton Dickinson). The tubes were mixed by inversion and centrifuged in a microfuge for 10 minutes. A 200 ul aliquot of plasma was transferred to a scintillation vial for further processing of the sample. • 4. Euthanasia: Animals were euthanized by intravenous injection of a lethal dose of T61 Euthanasia Fluid (Hoechst-Roussel) into a lateral ear vein. Death was verified by absence of respiration, heart beat, and ocular reflexes. • 5. Dissection of Ocular Tissues. • a. Removal of Aqueous Humor: Aqueous humor was removed using a 1 ml disposable, plastic syringe equipped with a 5/8"-27g needle. The needle was inserted into the anterior chamber at the limbus. The fluid was gently withdrawn and transferred to a preweighed scintillation vial. • b. Removal of Globe, Conjunctiva, and Nictitating Membrane: The eyelids were retracted using 6" curbed hemostats. Incisions were made at the corners of the eye to facilitate dissection of the conjunctiva. The palpebral conjunctiva and nictitating membrane were dissected free of the eyelids, muscle, and connective tissue using Wilmer-Converse conjunctiva scissors. The conjunctiva and nictitating membrane were grasped with straight Kirby tissue forceps to form a sack around the globe. The sack and its contents were removed from the socket as a unit using heavy curved nucleation scissors. Excess blood was removed from the outside of the sac by gentle blotting with gauze pads. • c. Dissection of Conjunctiva, and Nictitating Membrane: The nictitating membrane was grasped with straight Kirby tissue forceps. The conjunctiva was cut with heavy curved eye scissors along one edge of the nictitating membrane. […]

For `O=C(O)c1cc(=O)c2c(OCC(O)COc3cccc4oc(C(=O)O)cc(=O)c34)cccc2o1` [CROMOLYN FREE DRUG, 5,5' -[(2-Hydroxy-1,3-propanediyl)bis-(oxy)]bis[4-oxo-4H-1-benzopyran-2-carboxylic acid]], the “TISSUE CONCENTRATION MEAN” value (AQUEOUS HUMOR, Rx eye, 2 HR, EXAMPLE 1) was 70 ng Cromolyn/g or ml Tissue, the “TISSUE CONCENTRATION MEAN” value (AQUEOUS HUMOR, Rx eye, 2 HR, EXAMPLE 2) was 36 ng Cromolyn/g or ml Tissue and the “TISSUE CONCENTRATION MEAN” value (AQUEOUS HUMOR, Rx eye, 2 HR, EXAMPLE 3) was 129 ng Cromolyn/g or ml Tissue. The “TISSUE CONCENTRATION WEIGHTED MEAN” value (AQUEOUS HUMOR, Rx eye, 2 HR) was 39 ng Cromolyn/g or ml Tissue, the “TISSUE CONCENTRATION MEAN” value (AQUEOUS HUMOR, Rx eye, 4 HR, EXAMPLE 1) was 37 ng Cromolyn/g or ml Tissue and the “TISSUE CONCENTRATION MEAN” value (AQUEOUS HUMOR, Rx eye, 4 HR, EXAMPLE 2) was 29 ng Cromolyn/g or ml Tissue. The “TISSUE CONCENTRATION MEAN” value (AQUEOUS HUMOR, Rx eye, 4 HR, EXAMPLE 3) was 68 ng Cromolyn/g or ml Tissue, the “TISSUE CONCENTRATION WEIGHTED MEAN” value (AQUEOUS HUMOR, Rx eye, 4 HR) was 35 ng Cromolyn/g or ml Tissue and the “TISSUE CONCENTRATION MEAN” value (AQUEOUS HUMOR, Rx eye, 8 HR, EXAMPLE 1) was 16 ng Cromolyn/g or ml Tissue. The “TISSUE CONCENTRATION MEAN” value (AQUEOUS HUMOR, Rx eye, 8 HR, EXAMPLE 2) was 13 ng Cromolyn/g or ml Tissue, the “TISSUE CONCENTRATION MEAN” value (AQUEOUS HUMOR, Rx eye, 8 HR, EXAMPLE 3) was 10 ng Cromolyn/g or ml Tissue and the “TISSUE CONCENTRATION WEIGHTED MEAN” value (AQUEOUS HUMOR, Rx eye, 8 HR) was 13 ng Cromolyn/g or ml Tissue. The “TISSUE CONCENTRATION MEAN” value (CONJUNCTIVA, Rx eye, 2 HR, EXAMPLE 1) was 3501 ng Cromolyn/g or ml Tissue, the “TISSUE CONCENTRATION MEAN” value (CONJUNCTIVA, Rx eye, 2 HR, EXAMPLE 2) was 3316 ng Cromolyn/g or ml Tissue and the “TISSUE CONCENTRATION MEAN” value (CONJUNCTIVA, Rx eye, 2 HR, EXAMPLE 3) was 2332 ng Cromolyn/g or ml Tissue. For the same compound, the “TISSUE CONCENTRATION WEIGHTED MEAN” value (CONJUNCTIVA, Rx eye, 2 HR) was 2887 ng Cromolyn/g or ml Tissue, the “TISSUE CONCENTRATION MEAN” value (CONJUNCTIVA, Rx eye, 4 HR, EXAMPLE 1) was 742 ng Cromolyn/g or ml Tissue and the “TISSUE CONCENTRATION MEAN” value (CONJUNCTIVA, Rx eye, 4 HR, EXAMPLE 2) was 683 ng Cromolyn/g or ml Tissue. The “TISSUE CONCENTRATION MEAN” value (CONJUNCTIVA, Rx eye, 4 HR, EXAMPLE 3) was 772 ng Cromolyn/g or ml Tissue, the “TISSUE CONCENTRATION WEIGHTED MEAN” value (CONJUNCTIVA, Rx eye, 4 HR) was 716 ng Cromolyn/g or ml Tissue and the “TISSUE CONCENTRATION MEAN” value (CONJUNCTIVA, Rx eye, 8 HR, EXAMPLE 1) was 687 ng Cromolyn/g or ml Tissue. For the same compound, the “TISSUE CONCENTRATION MEAN” value (CONJUNCTIVA, Rx eye, 8 HR, EXAMPLE 2) was 578 ng Cromolyn/g or ml Tissue, the “TISSUE CONCENTRATION MEAN” value (CONJUNCTIVA, Rx eye, 8 HR, EXAMPLE 3) was 614 ng Cromolyn/g or ml Tissue and the “TISSUE CONCENTRATION WEIGHTED MEAN” value (CONJUNCTIVA, Rx eye, 8 HR) was 607 ng Cromolyn/g or ml Tissue. For the same compound, the “TISSUE CONCENTRATION MEAN” value (CORNES, Rx eye, 2 HR, EXAMPLE 1) was 1005 ng Cromolyn/g or ml Tissue, the “TISSUE CONCENTRATION MEAN” value (CORNES, Rx eye, 2 HR, EXAMPLE 2) was 478 ng Cromolyn/g or ml Tissue and the “TISSUE CONCENTRATION MEAN” value (CORNES, Rx eye, 2 HR, EXAMPLE 3) was 683 ng Cromolyn/g or ml Tissue. For the same compound, the “TISSUE CONCENTRATION WEIGHTED MEAN” value (CORNES, Rx eye, 2 HR) was 519 ng Cromolyn/g or ml Tissue, the “TISSUE CONCENTRATION MEAN” value (CORNES, Rx eye, 4 HR, EXAMPLE 1) was 487 ng Cromolyn/g or ml Tissue and the “TISSUE CONCENTRATION MEAN” value (CORNES, Rx eye, 4 HR, EXAMPLE 2) was 298 ng Cromolyn/g or ml Tissue. For the same compound, the “TISSUE CONCENTRATION MEAN” value (CORNES, Rx eye, 4 HR, EXAMPLE 3) was 381 ng Cromolyn/g or ml Tissue, the “TISSUE CONCENTRATION WEIGHTED MEAN” value (CORNES, Rx eye, 4 HR) was 337 ng Cromolyn/g or ml Tissue and the “TISSUE CONCENTRATION MEAN” value (CORNES, Rx eye, 8 HR, EXAMPLE 1) was 160 ng Cromolyn/g or ml Tissue. The “TISSUE CONCENTRATION MEAN” value (CORNES, Rx eye, 8 HR, EXAMPLE 2) was 165 ng Cromolyn/g or ml Tissue, the “TISSUE CONCENTRATION MEAN” value (CORNES, Rx eye, 8 HR, EXAMPLE 3) was 127 ng Cromolyn/g or ml Tissue and the “TISSUE CONCENTRATION WEIGHTED MEAN” value (CORNES, Rx eye, 8 HR) was 162 ng Cromolyn/g or ml Tissue. For the same compound, the “TISSUE CONCENTRATION MEAN” value (IRIS-CILIARY BODY, Rx eye, 2 HR, EXAMPLE 3) was 56 ng Cromolyn/g or ml Tissue, the “TISSUE CONCENTRATION MEAN” value (IRIS-CILIARY BODY, Rx eye, 4 HR, EXAMPLE 3) was 29 ng Cromolyn/g or ml Tissue and the “TISSUE CONCENTRATION MEAN” value (NICTITATING MEMBRANE, Rx eye, 2 HR, EXAMPLE 1) was 2136 ng Cromolyn/g or ml Tissue. The “TISSUE CONCENTRATION MEAN” value (NICTITATING MEMBRANE, Rx eye, 2 HR, EXAMPLE 2) was 2438 ng Cromolyn/g or ml Tissue, the “TISSUE CONCENTRATION MEAN” value (NICTITATING MEMBRANE, Rx eye, 2 HR, EXAMPLE 3) was 2618 ng Cromolyn/g or ml Tissue and the “TISSUE CONCENTRATION WEIGHTED MEAN” value (NICTITATING MEMBRANE, Rx eye, 2 HR) was 2319 ng Cromolyn/g or ml Tissue. For the same compound, the “TISSUE CONCENTRATION MEAN” value (NICTITATING MEMBRANE, Rx eye, 4 HR, EXAMPLE 1) was 480 ng Cromolyn/g or ml Tissue, the “TISSUE CONCENTRATION MEAN” value (NICTITATING MEMBRANE, Rx eye, 4 HR, EXAMPLE 2) was 484 ng Cromolyn/g or ml Tissue and the “TISSUE CONCENTRATION MEAN” value (NICTITATING MEMBRANE, Rx eye, 4 HR, EXAMPLE 3) was 576 ng Cromolyn/g or ml Tissue. For the same compound, the “TISSUE CONCENTRATION WEIGHTED MEAN” value (NICTITATING MEMBRANE, Rx eye, 4 HR) was 494 ng Cromolyn/g or ml Tissue, the “TISSUE CONCENTRATION MEAN” value (NICTITATING MEMBRANE, Rx eye, 8 HR, EXAMPLE 1) was 348 ng Cromolyn/g or ml Tissue and the “TISSUE CONCENTRATION MEAN” value (NICTITATING MEMBRANE, Rx eye, 8 HR, EXAMPLE 2) was 350 ng Cromolyn/g or ml Tissue. The “TISSUE CONCENTRATION MEAN” value (NICTITATING MEMBRANE, Rx eye, 8 HR, EXAMPLE 3) was 462 ng Cromolyn/g or ml Tissue, the “TISSUE CONCENTRATION WEIGHTED MEAN” value (NICTITATING MEMBRANE, Rx eye, 8 HR) was 383 ng Cromolyn/g or ml Tissue and the “TISSUE CONCENTRATION MEAN” value (PLASMA, 2 HR, EXAMPLE 3) was 1 ng Cromolyn/g or ml Tissue. For the same compound, the “Cromolyn levels in the aqueous humor of the untreated eye” value (any time point (2, 4, 8 hours), Example 1 results text) was “no detectable”.
